Reference: patent US20030220307A1, “Remedial agent for osteoporosis” (priority 2000, published 2003)

Columns and labels:
[1] = tested on: ovariectomized (OVX) rats; format: in vivo, rat; conditions: 0.04 μg/kg per dose, subcutaneous, 5 times a week for 6 weeks; third lumbar vertebra
Description: Seven- to nine-week-old W-I female rats (Imamichi Institute for Animal Reproduction) were ovariectomized to remove both ovaries. From the following day, 1α,25-dihydroxyvitamin D3 was subcutaneously administered 5 times a week for 6 weeks in an amount of 0.01 to 0.04 μg/kg per dose. After the last administration, 24-hour urine was sampled from each rat and blood was drawn under ether anesthesia. The rats were then euthanized and their lumbar vertebrae were isolated. The lumbar bone mineral density was measured at the third lumbar vertebra site using a dual X-ray bone mineral densitometer (DCS-600, ALOKA). The blood and urinary calcium levels and the urinary creatinine level were measured with a HITACHI automatic analyzer (Model 7170, Hitachi). Statistical processing was carried out using a software package of Statistic Analysis System (SAS). A comparison between sham operation (sham) and ovariectomy (OVX) groups was made by an unpaired t-test, while a comparison between OVX and drug treatment groups or between sham and drug treatment groups was made by Dunnett's multiple test. A P-value less than 5% was defined as a significant difference.

[2] = tested on: ovariectomized (OVX) rats; experiment: Test in osteoporosis rat model (femur bone mineral density and blood Ca level); format: in vivo; conditions: oral; for OVX-induced decrease in femur bone mineral density: every day for 8 weeks, vs OVX group, p<0.05, level remained as high as in the sham group; for blood calcium-increasing effect: in amounts where they suppressed the decrease in bone mineral density, 8 weeks, blood drawn 24 hours after last administration
Description: The compounds of the present invention were evaluated for their effects on bone mineral density and blood calcium (Ca) level in osteoporosis rat model. The following compounds were tested: 1α,3β-dihydroxy-20(S)-(3-ethyl-3-hydroxypentyl)-9,10-secopregna-5,7,10(19),16-tetraene from Example 11 (hereinafter referred to as “Compound l”) and 1α,3β-dihydroxy-20(S)-(5-ethyl-5-hydroxy-3-heptynyl)-9,10-secopregna-5,7,10(19),16-tetraene from Example 6 (hereinafter referred to as “Compound 2”).
Nine-month-old W-I female rats (Imamichi Institute for Animal Reproduction) were ovariectomized to remove both ovaries. From the following day, Compound 1 or Compound 2 was orally administered every day for 8 weeks. Compound 1 was given in an amount of 0.5 μg/kg, 1 μg/kg or 2 μg/kg per day in two divided doses, while Compound 2 was given in an amount of 0.125 μg/kg, 0.25 μg/kg or 0.5 μg/kg per day in two divided doses. Twenty-four hours after the last administration, blood was drawn from each rat under ether anesthesia. The rats were then euthanized and their femurs were isolated.
The femur bone mineral density was measured using a dual X-ray bone mineral densitometer (DCS-600EX, ALOKA). The blood calcium (Ca) level was measured with a HITACHI automatic analyzer (Model 7170, Hitachi). For comparison purposes, both groups of sham operation (sham) and ovariectomy (OVX; in which rats were ovariectomized only, not followed by administration of test compounds) were similarly assayed for their blood calcium (Ca) level and bone mineral density by isolating their femurs.
Statistical processing was carried out using a software package of Statistic Analysis System (SAS). A comparison between sham operation (sham) and ovariectomy (OVX) groups was made by an unpaired t-test, while a comparison between OVX and drug treatment groups was made by Dunnett's multiple test. A P-value less than 5% was defined as a significant difference.

blood calcium-increasing effect [2]	SMILES	OVX-induced decrease in lumbar bone mineral density [1]	OVX-induced decrease in femur bone mineral density ([2]; 1 μg/kg per day in two divided doses)	OVX-induced decrease in femur bone mineral density ([2]; 2 μg/kg per day in two divided doses)	OVX-induced decrease in femur bone mineral density ([2]; 0.125 μg/kg per day in two divided doses)	OVX-induced decrease in femur bone mineral density ([2]; 0.5 μg/kg per day in two divided doses)
–	C=C1/C(=C\C=C2/CCC[C@]3(C)[C@@H]([C@H](C)CCCC(C)(C)O)CC[C@@H]23)C[C@@H](O)C[C@@H]1O [1α,25-dihydroxyvitamin D3]	significantly suppressed	–	–	–	–
not observed	C=C1/C(=C\C=C2/CCC[C@]3(C)C([C@@H](C)CCC(O)(CC)CC)=CCC23)C[C@@H](O)C[C@@H]1O (stereo partly drawn) [Compound 1, 1α,3β-dihydroxy-20(S)-(3-ethyl-3-hydroxypentyl)-9,10-secopregna-5,7,10(19),16-tetraene]	–	significantly suppressed	significantly suppressed	–	–
not observed	C=C1/C(=C\C=C2/CCC[C@]3(C)C([C@@H](C)CCC#CC(O)(CC)CC)=CCC23)C[C@@H](O)C[C@@H]1O (stereo partly drawn) [Compound 2, 1α,3β-dihydroxy-20(S)-(5-ethyl-5-hydroxy-3-heptynyl)-9,10-secopregna-5,7,10(19),16-tetraene]	–	–	–	significantly suppressed	significantly suppressed
